In patent publication US20200247849A1, “PEPTIDE AGONISTS AND ANTAGONISTS OF TLR4 ACTIVATION” (PEPTICOM LTD, priority 2016, published 2020):

Tests used:
Type in all cases: cell-based
[1] = tested on: TLR4 with MD2 or CD14 co-receptor; test: Reporter gene (SEAP) PAMP assay in NIH3T3 cells expressing TLR4 with MD2 or CD14 co-receptor; conditions: summary of FIGS. 6A-6V; for Co-Receptor/s: co-receptor (MD2/CD14) via which the effect occurs; for Activity: type of effect (activation/inhibition) on TLR4
Description: FIGS. 6A-6V show the dose response inhibitor/activator effects of the designed peptides using a reporter gene assay. The reporter gene assay is composed of NIH3T3 cells transfected with either MD2 or CD14 along with TLR4 and the NF-κB-inducible reporter gene Secreted Alkaline Phosphatase (SEAP) to monitor TLR4 activation (Burger-[…] al. 2010, A new cell-based innate immune receptor assay for the examination of receptor activity, ligand specificity, signaling pathways and the detection of pyrogens. […] The receptors are coupled to for the detection of inhibitory activity, cells were treated with the peptide prior to exposure to LPS and the response to LPS is measured at variable peptide doses (as labeled). The detection of cell activation was performed using the peptide alone, at variable doses, as indicated in the respective graphs. The following presents in more details the experimental procedures. Experimental setup: The cell-based Assay is performed with different NIH3T3 reporter cell lines (NIH 3T3 PRR SEAP-TLR4/CD14 or -TLR4/MD2) and the control cell line NIH 3T3 SEAP. The NIH3T3 SEAP cell line is used in order to determine the background of the alkaline phosphatase expression. It is a cell line stably transfected with only the reporter gene plasmid. For each assay a vial of the master cell bank is revitalized and seeded in a standard cell culture flask (75 cm^2 T-Flask) at day one. Cells are cultured in 20 ml culture media (DMEM supplemented with 10% FCS (heat inactivated), 50 units/ ml penicillin, 0.05 mg/ ml streptomycin and 2 mmol/ L L-glutamine). The cells are cultured at 37° C. in a 5% CO2 humidified atmosphere. At Day 1: For the PAMP Assay cells are seeded in a 96-well plate at a density of 0.3.10^5 cells/well in a final volume of 100 μl culture media (DMEM, 10% FCS (heat inactivated)). To ensure equal culture conditions the 96-well cell culture plates are placed side by side and cultivated in a humidified CO2 incubator (37° C. and 5% CO2). […] After a cultivation period of 24 h the media is removed and replaced with the respective volume of fresh media (DMEM, 0.5% FCS (heat inactivated)).The lyophilized peptides are stored in a freezer at -20° C. upon arrival. For the experiments they are dissolved in DMSO (to the highest possible concentration). Before opening the peptides are allowed to equilibrate to room temperature (in order to reduce the uptake of moisture). For each experiment the stock solution is diluted in DMEM to the appropriate working concentration. […] Sonication was also used to help dissolve the peptides. Immediately after replacing the media, the diluted peptides are applied in a serial dilution to the cells and directly after that the agonist is added to the cells. After adding peptide and […] the final volume in each well of a 96 well plate amounts 100 μl/well. The culture medium containing 0.5% FCS is used as a negative reference item. The induction is performed for 18 h at 37° C. and 5% CO2. At Day 3: To determine the final SEAP value, 50 μl of the supernatant is carefully transferred in a new 96-well plate (Greiner-F-plate) and 50 μl of the substrate (pNPP; p-nitrophenyl phosphate) is added. SEAP catalyzes the hydrolysis of pNPP to the final product para-nitrophenol (yellow) which can be detected by a photometric analysis using an UV-VIS reader at 405 nm. […] The results of FIGS. 6A-6V with respect to peptide activity are summarized in Table 1 above with respect to the type of effect of the respective peptide (activation/inhibition) and with respect to the corresponding co-receptor (MD2/CD14). Data concerning SEQ ID No. 22 with respect to co-receptor CD14 is in preparation.

Raw 264.7 cells = test: Raw cells activation, FACS of activation markers CD80, CD40, CD86, MHC-II; conditions: 24 h and 48 h, compared to negative control and other peptides
Method: Additional testing was carried out to verify the activation levels if the peptides using expression level of activation markers. Raw cells were activated using the peptides of SEQ ID Nos. 1, 4 and 5 and a control peptide. The analysis of the activation level was done by examining the expression level of few activation markers. In order to verify the obtained results, two repeats were done. Standard Raw cells activation and FACS staining protocol were carried out.
The following describes the experimental design in detail. 5-7.5X10^6 Raw 264.7 cells were seeded in 6-well plates 24 h prior to the stimulation in 3ml/well of DMEM containing 4 mmol/L glutamine and 10% heat-inactivated FCS. At the next day, cells were treated with bacterial LPS (10 or 100 ng/ml, E coli, sigma) as positive control, and with peptides SEQ ID Nos. 1, 4, 5 and the control peptide (50, 100 and 200 μM for each peptide). The volume of the incubation was 1.5 ml for each well. After 24 or 48 h (two experiments), the concentrations of nitrite were measured in the culture supernatant by the Griess assay while absorbance was read at 550 nm. Simultaneously, the cells were stained for surface receptors: CD40, CD80, CD86 and MHC-II with the appropriate antibodies (biolegend) and analysed by flow cytometry using FSC express 3 software. […]

TLR4/MD2 = target: T1, TLR4/MD2 (Homo sapiens, UniProt O00206+Q9Y6Y9); test: Reporter gene assay, NIH3T3 cells TLR4 with MD2 co-receptor
T1 construct: expressed in transfected cells; host or cells: NIH3T3 (NIH 3T3 PRR SEAP-TLR4/MD2)
T1 sequence (O00206 24-839): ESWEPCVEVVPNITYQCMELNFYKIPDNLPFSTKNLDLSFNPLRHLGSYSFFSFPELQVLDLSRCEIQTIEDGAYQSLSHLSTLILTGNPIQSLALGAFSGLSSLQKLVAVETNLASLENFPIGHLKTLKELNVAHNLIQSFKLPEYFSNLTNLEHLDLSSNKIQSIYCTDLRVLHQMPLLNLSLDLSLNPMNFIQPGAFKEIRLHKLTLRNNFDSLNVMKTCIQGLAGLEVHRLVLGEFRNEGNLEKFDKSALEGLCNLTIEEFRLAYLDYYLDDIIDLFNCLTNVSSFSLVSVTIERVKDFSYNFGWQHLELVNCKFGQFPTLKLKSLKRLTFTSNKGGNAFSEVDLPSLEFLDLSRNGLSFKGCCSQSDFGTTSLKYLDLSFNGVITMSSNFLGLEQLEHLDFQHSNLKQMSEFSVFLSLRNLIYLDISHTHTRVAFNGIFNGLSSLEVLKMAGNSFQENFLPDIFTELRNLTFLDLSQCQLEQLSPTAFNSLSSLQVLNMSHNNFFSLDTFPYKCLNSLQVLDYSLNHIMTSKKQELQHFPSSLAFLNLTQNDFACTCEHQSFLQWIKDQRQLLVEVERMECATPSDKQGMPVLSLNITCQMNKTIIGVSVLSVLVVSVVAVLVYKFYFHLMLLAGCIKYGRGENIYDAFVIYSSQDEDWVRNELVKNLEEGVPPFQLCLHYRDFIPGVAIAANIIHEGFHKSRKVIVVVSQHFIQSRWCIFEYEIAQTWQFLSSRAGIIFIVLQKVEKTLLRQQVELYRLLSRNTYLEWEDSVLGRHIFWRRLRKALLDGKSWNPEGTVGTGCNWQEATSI
T1 sequence (Q9Y6Y9 19-160): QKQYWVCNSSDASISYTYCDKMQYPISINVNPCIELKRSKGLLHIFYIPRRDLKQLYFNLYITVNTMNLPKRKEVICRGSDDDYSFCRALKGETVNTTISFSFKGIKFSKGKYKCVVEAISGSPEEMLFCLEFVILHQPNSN
Description: FIGS. 6A-6V present peptide activity using NIH3T3 cells that express TLR4, with either the MD2 co-receptor (top) or CD14 co-receptor (bottom), for peptides of SEQ ID Nos. 1-22, respectively, according to some embodiments of the invention. FIGS. 6A-6V show the dose response inhibitor/activator effects of the designed peptides using a reporter gene assay. The reporter gene assay is composed of NIH3T3 cells transfected with either MD2 or CD14 along with TLR4 and the NF-κB-inducible reporter gene Secreted Alkaline Phosphatase (SEAP) to monitor TLR4 activation (Burger-Kentischer et al. 2010, A new cell-based innate immune receptor assay for the examination of receptor activity, ligand specificity, signaling pathways and the detection of pyrogens. J Immunol Methods. 358(1-2): 93-103). […] The receptors are coupled to for the detection of inhibitory activity, cells were treated with the peptide prior to exposure to LPS and the response to LPS is measured at variable peptide doses (as labeled). […]
At Day 3: To determine the final SEAP value, 50 μl of the supernatant is carefully transferred in a new 96-well plate (Greiner-F-plate) and 50 μl of the substrate (pNPP; p-nitrophenyl phosphate) is added. SEAP catalyzes the hydrolysis of pNPP to the final product para-nitrophenol (yellow) which can be detected by a photometric analysis using an UV-VIS reader at 405 nm. […]

Substance | Co-Receptor/s [1] | Activity [1] | stimulation of raw cells (expression of activation markers) (Raw 264.7 cells) | activation with respect to MD2 (TLR4/MD2)
LAWYFGRKIKE (Inhibitor) [SEQ ID No. 11] | MD2 | Inhibitor | most promising stimulator | –
c[WMLGMESI] (cyclic; Activator, cyclic) [SEQ ID No. 7] | CD14 | Activator | – | weak activator
